According to patent US12037324B2, “Biarylmethyl heterocycles” (Université de Montréal, priority 2016, dated 2024):

How the values were obtained:
hAT1R [1] = biological target: T1, hAT1R (Homo sapiens, UniProt P30556); assay: BRET β-arrestin2 biosensor assay, higher receptor expression (hAT1R 5 ng/well), HEK293 cells; type: cell-based; settings: for EC50: High AT1R Expression
T1 sequence (P30556 1-359): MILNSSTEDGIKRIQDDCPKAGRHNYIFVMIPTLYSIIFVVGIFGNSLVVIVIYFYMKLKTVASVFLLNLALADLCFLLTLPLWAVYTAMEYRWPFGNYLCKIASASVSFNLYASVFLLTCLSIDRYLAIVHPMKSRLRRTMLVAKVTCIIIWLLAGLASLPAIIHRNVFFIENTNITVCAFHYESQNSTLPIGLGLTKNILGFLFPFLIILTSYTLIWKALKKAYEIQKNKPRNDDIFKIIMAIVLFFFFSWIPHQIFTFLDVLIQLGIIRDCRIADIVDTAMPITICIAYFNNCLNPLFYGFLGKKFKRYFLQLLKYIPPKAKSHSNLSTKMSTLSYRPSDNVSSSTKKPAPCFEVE

hAT1R [2] = biological target: T1, hAT1R; assay: cell-based; settings: agonist mode; for EC50: read-out: BRET P63 EC50
AGTR1 [3] = biological target: T2, AGTR1 (Homo sapiens, UniProt P30556); assay: DiscoveRx IP1 accumulation assay (HTRF), agonist mode, Pathunter CHO-K1 AGTR1 β-arrestin cell line; type: cell-based; settings: for EC50: read-out: IP-1 EC50
T2 construct: host or cells: Pathunter CHO-K1 AGTR1 β-arrestin cell line (CHO-K1)
T2 sequence (P30556 1-359): T1 sequence (P30556 1-359)
Procedure, shortened: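 Agonist mode in CHO-K1 AGTR1 β-arrestin cells plated 14-16 h before; compounds at varying concentrations for 90 min at 37° C, IP1 accumulation read by HTRF (D2-conjugate and anti-IP1 cryptate, 20 min room temperature). EC50 from 4-parameter logistic fit; activity given as percentage of maximal AII effect.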

hAT1R [4] = biological target: T1, hAT1R; assay: cell-based
AGTR1 [5] = biological target: T2, AGTR1; assay: DiscoveRx β-arrestin2 recruitment assay (enzyme complementation, Pathunter CHO-K1 AGTR1 β-arrestin cell line); type: cell-based; settings: DiscoveRx β-arrestin2 recruitment; for DiscoveRx β-arrestin2 Ymax (%): maximal response
Procedure, shortened: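 Chemiluminescent enzyme-complementation read-out of β-arrestin2 recruitment to AGTR1 in engineered CHO-K1 cells after 90 min compound exposure at 37° C. Values are 4-parameter logistic EC50s in agonist mode, IC50s in antagonist mode, with efficacy relative to the maximal All response.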

[6] = Low AT1R Expression, read-out: BRET β-Arrestin2 Low AT1R Expression EC50
[7] = section of the 42nd table ending at r951, example numbering restarts after the DiscoveRx section, read-out: β-arrestin2 EC50

SMILES | BRET β-Arrestin2 High AT1R Expression Ymax (%) (hAT1R [1]) | EC50 (hAT1R [1]) [nM] | BRET P63 Ymax (hAT1R [2]) [%] | EC50 (hAT1R [2]) [nM] | EC50 (AGTR1 [3]) [nM] | BRET β-Arrestin2 Low AT1R Expression Ymax (%) (hAT1R [4]; Low AT1R Expression) | EC50 (hAT1R [4]; [6]) [nM] | EC50 (AGTR1 [5]) [nM] | DiscoveRx β-arrestin2 Ymax (%) (AGTR1 [5]) | IP-1 Ymax (%) (AGTR1 [3]) | EC50 (hAT1R [4]; [7]) [nM]
CCCCC1=NC2(CCCC2)C(=O)N1Cc1ccc(-c2cc(-c3cc(OC)ccn3)ccc2-c2nn[nH]n2)cc1 [Example 141] | 88.6 | 10 | 14.9 | 13.3 | > 100000 | 58.9 | 40.4 | 13.5 | 31.5 | – | –
CCCCC1=NC2(CCCC2)C(=O)N1Cc1ccc(-c2cc(-c3ccccc3)ccc2-c2nn[nH]n2)cc1 [Example 33] | 83.0 | 16.5 | – | > 10000 | 80.8 | 27.5 | 26.7 | 9.7 | 29.9 | 3.3 | –
CC1=NC2(CCCC2)C(=O)N1Cc1ccc(-c2cc(-c3ccccc3)ccc2-c2nn[nH]n2)cc1 [Example 110, 3-((6′-(2H-tetrazol-5-yl)-[1,1′:3′,1″-terphenyl]-4-yl)methyl)-2-methyl-1,3-diazaspiro[4.4]non-1-en-4-one] | – | – | – | > 100000 | 108 | 22.1 | 95.5 | 35.9 | 26.9 | 9.0 | –
CCCCC1=NC2(CCOCC2)C(=O)N1Cc1ccc(-c2cc(-c3ccccc3)ccc2-c2nnn[nH]2)cc1 [Example 156] | – | – | – | > 100000 | 189 | – | – | 85.1 | 19.9 | 7.2 | 250
CCc1nc2c(C)cc(C)nc2n1Cc1ccc(-c2cc(C3CCCOC3)ccc2-c2nn[nH]n2)cc1 (centres unmarked) [Example 79] | – | – | – | > 10000 | 499 | 21.1 | 464 | 286 | 31.7 | 9.4 | –
CCc1nc2c(C)cc(C)nc2n1Cc1ccc(-c2cc(Oc3cccnc3F)ccc2-c2nn[nH]n2)cc1 [Example 262] | – | – | 14.4 | 11.2 | 37.9 | – | – | 19.9 | 50.8 | 8.6 | 14.3
CCc1nc2c(C)cc(C)nc2n1Cc1ncc(-c2cc(-c3cccc(C)c3)ccc2-c2nnn[nH]2)cn1 [Example 188, 2-ethyl-5,7-dimethyl-3-((5-(3′-methyl-4-(1H-tetrazol-5-yl)biphenyl-3-yl)pyrimidin-2-yl)methyl)-3H-imidazo[4,5-b]pyridine] | – | – | 17.2 | 33.1 | 173 | – | – | 41.7 | 53.3 | 24.2 | 24.6
Cc1ccnc(-c2ccc(-c3nn[nH]n3)c(-c3ccc(CN4C(=O)C5(CCCC5)N=C4C(C)C)cc3)c2)c1 [Example 118] | – | – | 21.8 | 102 | 155 | 78.7 | 173 | 66 | 50.0 | 17.1 | –
CCc1nc2c(C)cc(C)nc2n1Cc1ccc(-c2cc(-c3cc(C)ccn3)ccc2C(=O)O)cc1 [Example 193] | – | – | 29.3 | 160 | 132 | – | – | 52.2 | 60.7 | 25.0 | 133
CCCCC1=NC2(CCOC2)C(=O)N1Cc1ccc(-c2cc(-c3ccccc3O)ccc2-c2nnn[nH]2)cc1 (single isomer, unassigned) [Example 150] | – | – | 14.6 | 105 | 20.7 | 65.7 | 76.9 | 13.7 | 45.6 | 17.2 | –
CCC1=NC2(CCOC2)C(=O)N1Cc1ccc(-c2cc(-c3cccc(C)c3)ccc2-c2nnn[nH]2)cc1 (single isomer, unassigned) [Example 169] | – | – | 13.3 | 127 | 484 | – | – | 111 | 50.1 | 14.5 | 271
Cc1ccnc(-c2ccc(-c3nn[nH]n3)c(-c3ccc(CN4C(=O)C5(CCCC5)N=C4C4CC4)cc3)c2)c1 [Example 120, 2-cyclopropyl-3-((5′-(4-methylpyridin-2-yl)-2′-(2H-tetrazol-5-yl)-[1,1′-biphenyl]-4-yl)methyl)-1,3-diazaspiro[4.4]non-1-en-4-one] | – | – | 17.8 | 18.4 | 75.3 | 50.1 | 34.3 | 12.5 | 44.5 | 20.7 | –
CCc1nc2c(C)cc(C)nc2n1Cc1ccc(-c2cc(-c3cc(C)cc(C)n3)ccc2C(=O)O)cc1 [Example 194] | – | – | 16.2 | 278 | 214 | – | – | 63.2 | 36.6 | 14.5 | 295
CCc1nc2c(C)cc(C)nc2n1Cc1ccc(-c2cc(C3CCCC3)ccc2-c2nn[nH]n2)cc1 [Example 80, 3-((5′-cyclopentyl-2′-(2H-tetrazol-5-yl)-[1,1′-biphenyl]-4-yl)methyl)-2-ethyl-5,7-dimethyl-3H-imidazo[4,5-b]pyridine] | – | – | – | > 100000 | 425 | 29.8 | 30.4 | 73.4 | 33.5 | 14.6 | –
CCc1cn(-c2ccc(-c3nnn[nH]3)c(-c3ccc(Cn4c(CC)nc5c(C)cc(C)nc54)cc3)c2)nn1 [Example 231] | – | – | 13.8 | 36.2 | 30.1 | – | – | 28.7 | 36.8 | 8.4 | 98.8
CCC1=NC2(CCOC2)C(=O)N1Cc1ccc(-c2cc(-c3cccc(C)c3)ccc2-c2nnn[nH]2)cc1 (single isomer, unassigned) [Example 166] | – | – | 22.7 | 65 | 103 | – | – | 23.1 | 47.5 | 14.8 | 64.5
CCCCC1=NC2(CCOCC2)C(=O)N1Cc1ccc(-c2cc(-c3cc(C)ccn3)ccc2-c2nn[nH]n2)cc1 [Example 171, 2-butyl-3-((5′-(4-methylpyridin-2-yl)-2′-(2H-tetrazol-5-yl)-[1,1′-biphenyl]-4-yl)methyl)-8-oxa-1,3-diazaspiro[4.5]dec-1-en-4-one] | – | – | 20.1 | 30.9 | 8120 | – | – | 33.5 | 38.6 | 68.1 | 68.4
CCCC1=NC2(CCCC2)C(=O)N1Cc1ccc(-c2cc(-c3cc(OC)ccn3)ccc2-c2nn[nH]n2)cc1 [Example 115, 3-((5′-(4-methoxypyridin-2-yl)-2′-(2H-tetrazol-5-yl)-[1,1′-biphenyl]-4-yl)methyl)-2-propyl-1,3-diazaspiro[4.4]non-1-en-4-one] | – | – | 22.1 | 11.9 | 39.3 | 53.3 | 16.8 | 13.3 | 30.8 | 13.6 | –
CCCCC1=NC2(CCOC2)C(=O)N1Cc1ccc(-c2cc(-c3ccccc3O)ccc2-c2nnn[nH]2)cc1 (single isomer, unassigned) [Example 151] | – | – | 11.0 | 174 | 607 | 42.5 | 419 | 76.4 | 44.3 | 14.0 | –
CCc1nc2c(C)cc(C)nc2n1Cc1ccc(-c2cc(-c3cc(C(F)F)ccn3)ccc2-c2nn[nH]n2)cc1 [Example 67] | – | – | 14.3 | 7.3 | 26.5 | 40.7 | 14.5 | 19.3 | 30.9 | 10.2 | –
